Data on four molecules can be found in patent US20240024494A1, “SMALL-MOLECULE CONJUGATE AND USE THEREOF” (SHANGHAI MEWSGEN BIOTECHNOLOGY CO., LTD, priority 2020, published 2024).

Like-named read-outs stand apart in the source and are kept apart here.

A word on the IC50: it is the midpoint of a concentration-inhibition curve.

Data set [1] relates to HCT116 (human colon carcinoma cells). Briefly: Tumor cell proliferation inhibition test, CCK-8 method (Example 19). Type of data set: cell-based. How it is done:
(§1) A part of the compounds prepared in the examples of the present disclosure were subjected to a tumor cell proliferation inhibition test by using a CCK-8 method. A cell line HCT116 (human colon carcinoma cells) and SW1990 (human pancreatic carcinoma cells) were purchased from Shanghai Meixuan Technology Co., Ltd. Samples (a part of the compounds prepared in the examples) were dissolved in DMSO (Merck), prepared into a concentration of 10 mM, and finally triply diluted in DMEM or McCoy's 5A 1640 medium to 8 concentration gradients. A cell culture solution was collected when a cell culture met a test requirement, 10 μL of the cell culture solution was uniformly coated on a cell counting plate, cells were counted for 3 times under a microscope, and a cell density was calculated by taking an average value; and a 96-well plate (Corning, #3599) was taken, 200 μL of the cell culture solution was added into each well for cell inoculation at a cell concentration of 6×10^3 cells per well, and the inoculated 96-well plate was incubated in a cell incubator containing 5% CO2 at 37° C. for 24 h. An old culture medium was removed by suction, 200 μL of the triply diluted sample DMEM or McCoy's 5A 1640 medium at an initial concentration of 10 μmol/L was added to each well, the DMSO content was controlled to be 1%, three duplicate wells were set, PBS was used as a blank control, and the plate was incubated in the incubator for 72 h. The original DMEM or McCoy's 5A 1640 medium in the 96-well plate and a PBS buffer in a final row were sucked out, a prepared CCK-8 solution (90% DMEM or McCoy's 5A 1640 medium+10% CCK-8) was added, the mixture was incubated in an incubator, and an absorbance was read by using a Biotek microplate reader. Cell growth inhibition rate IC %=(blank control well OD value−administration well OD value)/blank control well OD value×100%.

Data set [2] relates to SW1990 (human pancreatic carcinoma cells). The data set is described as above. It is filed as cell-based. How it is done:
as §1

Data set [3] deals with KYSE-150 (human esophageal squamous carcinoma cells). Type of data set: cell-based. The conditions noted are these: 72 h. The text has this: (§2) A part of the compounds of the examples of the present disclosure were subjected to a tumor cell proliferation inhibition test by using an MTT method (e.g. Pharmacological Research Method of New Drug, 2007: 242-243, edited by Lu Qiujun).
(§3) A cell strain was selected from KYSE-150 (human esophageal squamous carcinoma cells), MGC803 (human gastric carcinoma cells), and SHG44 (human glioma cells), and frozen and passaged by a pharmacological laboratory of Shanghai Institute of Pharmaceutical Industry. A culture solution was DMEM+10% FBS+double antibody.
(§4) In-vitro activity test: 100 μL of a cell suspension at a concentration of 4-5×10^4/mL was added to each well of a 96-well plate, and placed in a 5% CO2 incubator at 37° C. After 24 h, a sample solution was added at 10 μL/well, double duplicate wells were set, and a reaction was performed at 37° C. with 5% CO2 for 72 h. 20 μL of 5 mg/ml of an MTT solution was added into each well and reacted for 4 h, a dissolving solution was added at 100 μL/well, the mixture was placed in an incubator, and after dissolution, an OD value at 570 nm was measured with a full-wavelength multifunctional microplate reader. An inhibition rate (IR) and a median inhibitory concentration (IC50) were calculated by using an Excel software.
(§5) The inhibition rate (IR %) of the drug on cell growth was calculated according to the following equation: […]

Data set [4] deals with MGC803 (human gastric carcinoma cells). Type of data set: cell-based. The conditions noted are these: 72 h.
Text: as §2, §3, §4, §5

In data set [5] the test system is SHG44 (human glioma cells). It is filed as cell-based. Conditions: 72 h.
Text: as §2, §3, §4, §5

Data set [6] can be described thus: In-vivo antitumor activity test in human stromal tumor SHG44 (subcutaneous tumor block in nude mice). Details: species or system BALB/C nude mice. Conditions: SHG44; 10 mg/kg, Ipx5 each week for 2 continuous weeks; d22; in g (unit assumed). How it is done: (§6) Animals: BALB/C nude mice (SPF grade), male, and 18-20 g. The compounds were firstly added with DMSO at a total amount of 4%, then added with Tween-80 at a total amount of 2% for assisting dissolution, then added with PEG300 at a total amount of 5%, and finally added with sterilized normal saline to be prepared into a solution at 1 mg/mL. Idasanutlin was firstly added with DMSO at a total amount of 4%, then added with Tween-80 at a total amount of 2% for assisting dissolution, then added with PEG300 at a total amount of 5%, and finally added with sterilized normal saline to be prepared into a solution at 2.5 mg/mL.
(§7) A well-grown human stromal tumor SHG44 mass was taken and aseptically cut into uniform small blocks of about 3 mm in size, and a right axilla of each mouse was subcutaneously inoculated with one block through a trocar. […] The animals were regrouped according to a tumor size. The animals with too large and too small tumors were sifted out. An average tumor volume in each group was approximately the same. An administration was started according to the following solution with an administration volume of 0.2 mL/20 g body weight. A long diameter a (mm) of the tumor and a short diameter b (mm) vertical to the tumor were measured by a digital display electronic caliper 2 times a week from day 9 of the inoculation. A tumor volume was calculated by the formula: TV=ab^2/2, and a relative tumor volume was calculated by the formula: RTV=Vt/Vo, wherein Vo was the obtained tumor volume measured at a cage separation (i.e. d1) and Vt was the tumor volume measured at each time. The animals were sacrificed 30 days after the inoculation (d22) and weighed, tumor mass was obtained by dissection and weighed, and the results were determined according to the following formula: […]

In data set [7] the test system is human gastric carcinoma MGC803. Briefly: In-vivo antitumor activity test in human gastric carcinoma MGC803 (subcutaneous tumor block in nude mice). Also noted: species or system BALB/C nude mice. Conditions: MGC803; 10 mg/kg, Ipx5 each week for 2 continuous weeks; d22. How it is done:
as §6
as §7, with “gastric carcinoma MGC803” for “stromal”, “tumor” for “tumor SHG44”

For data set [8], the system named is human esophageal cancer KYSE-150. Kind of data set: In-vivo antitumor activity test in human esophageal cancer KYSE-150 (subcutaneous tumor block in nude mice). Also noted: species or system BALB/C nude mice. Conditions: KYSE-150; 10 mg/kg, Ipx5 each week for 2 continuous weeks; d22. How it is done: as §6
as §7, with “esophageal cancer KYSE-150” for “stromal”, “tumor” for “tumor SHG44”

With `COc1cc(C(=O)NCCOCCOCCOCCOCCC(=O)N[C@@H](C(=O)N[C@@H](CCCNC(N)=O)C(=O)Nc2ccc(COC(=O)N3CCC(NC(=O)O[C@H]4CC[C@]5(C)C6CC[C@]7(C)[C@@H](c8ccc(=O)oc8)CC[C@]7(O)C6CC[C@@H]5C4)CC3)cc2)C(C)C)ccc1NC(=O)[C@@H]1N[C@@H](CC(C)(C)C)[C@](C#N)(c2ccc(Cl)cc2F)[C@H]1c1cccc(Cl)c1F` (stereo partly shown) [Compound I-4], the half-maximal inhibitory concentration (IC50) in data set [1] (72 h) came out at 0.728 µM; in data set [2] (72 h) it was 0.576 µM; in data set [3], 1.06 µM; in data set [4] it was 1.67 µM; in data set [5], 0.319 µM. For the same molecule, the “Body weight of animals (After a tumor is removed)” value (“Body weight of animals” below) in data set [6] is given as 26.10 ± 2.00; in data set [7], 24.95 ± 1.62; in data set [8] it was 24.99 ± 1.48.
Regarding `COc1cc(C(=O)NCCOCCOCCOCCOCCC(=O)N[C@@H](C(=O)N[C@@H](CCCNC(N)=O)C(=O)Nc2ccc(COC(=O)NC3=C(C)C(=O)C4=C(C3=O)[C@@H](COC(N)=O)[C@@]3(OC)[C@H]5N[C@H]5CN43)cc2)C(C)C)ccc1NC(=O)[C@@H]1N[C@@H](CC(C)(C)C)[C@](C#N)(c2ccc(Cl)cc2F)[C@H]1c1cccc(Cl)c1F` [Compound I-6], the IC50 in data set [1] (CCK-8, 72 h, Table 1, read-out: IC50 HCT116) was 0.542 µM; in data set [2] (CCK-8, 72 h, Table 1, read-out: IC50 SW1990), over 50 µM; in data set [3] (MTT, Table 2, read-out: IC50 KYSE-150) it was 19.4 µM; in data set [4] (MTT, Table 2, read-out: IC50 MGC803), over 50 µM; in data set [5] (MTT, Table 2, read-out: IC50 SHG44) it was over 50 µM.
Turning to `COc1cc(C(=O)NCCOCCOCCOCCOCCC(=O)NCC(=O)NCC(=O)N[C@@H](Cc2ccccc2)C(=O)NCC(=O)Nc2ccc(COC(=O)N3CCN(C(=O)O[C@H]4CC[C@@]5(C)[C@H](CC[C@@H]6[C@@H]5[C@H](O)C(=O)[C@]5(C)[C@@H](c7ccc(=O)oc7)CC[C@]65O)C4)CC3)cc2)ccc1NC(=O)[C@@H]1N[C@@H](CC(C)(C)C)[C@](C#N)(c2ccc(Cl)cc2F)[C@H]1c1cccc(Cl)c1F` [Compound I-16], the IC50 in data set [1] (72 h) stood at 0.21 µM; in data set [2] (72 h), 0.022 µM; in data set [3], 0.243 µM; in data set [4] it was 0.402 µM; in data set [5], 0.041 µM. Moreover, the “Body weight of animals” value in data set [6] is recorded as 25.13 ± 0.97.
With `COc1cc(C(=O)NCCOCCOCCOCCOCCC(=O)NCC(=O)NCC(=O)N[C@@H](Cc2ccccc2)C(=O)NCC(=O)Nc2ccc(COC(=O)N3CCC(NC(=O)O[C@H]4CC[C@]5(C)C6CC[C@]7(C)[C@@H](c8ccc(=O)oc8)CC[C@]7(O)C6CC[C@@H]5C4)CC3)cc2)ccc1NC(=O)[C@@H]1N[C@@H](CC(C)(C)C)[C@](C#N)(c2ccc(Cl)cc2F)[C@H]1c1cccc(Cl)c1F` (stereo partly shown) [Compound I-17], the IC50 came out at 0.898 µM in data set [1] (72 h); 0.287 µM in data set [2] (72 h); 1.89 µM in data set [3]; 1.62 µM in data set [4]; 0.204 µM in data set [5]. For the same molecule, the “Body weight of animals” value in data set [6] came out at 25.60 ± 0.98.
